From patent publication US20260200911A1, “NOVEL COMPOUNDS” (Neurosterix Pharma Sarl., priority 2022, published 2026)

The compounds below were run against T1, human mGlu7 (Homo sapiens, UniProt Q14831) (assay: Fluorescent cell based Ca2+ mobilization assay (FLIPR) on HEK-293 cells expressing human mGlu7). Conditions: HEK-293 cells expressing hmGlu7; inhibition of EC80 L-AP4 response; mean of at least three independent experiments in duplicate; read-out: Ca^2+ Flux (mean IC50).
T1 construct: expressed in transfected cells
Excerpt: mGlu7 Assay on HEK-Expressing Human mGlu7
The cDNA encoding the human metabotropic glutamate 7 receptor (hmGlu7), (accession number NM_181874.2, NCBI Nucleotide database browser), was subcloned into an expression vector containing also the hygromycin resistance gene. In parallel, the cDNA encoding a G protein allowing redirection of the activation signal to intracellular calcium flux was subcloned into a different expression vector containing also the Puromycin resistance gene. Transfection of both these vectors into HEK293 cells with PolyFect reagent (Qiagen) according to supplier's protocol, and hygromycin and puromycin treatment allowed selection of antibiotic resistant cells which had integrated stably one or more copies of the plasmids. Positive cellular clones expressing hmGlu7 were identified in a functional assay measuring changes in calcium fluxes in response to glutamate and L-AP4 or known mGlu7 orthosteric antagonists.
HEK-293 cells expressing hmGlu7 were maintained in media containing DMEM, Fetal Bovine Serum (10%), Glutamax™ (2 mM), penicillin (100 units/mL), streptomycin (100 μg/mL), geneticin (100 μg/mL) and hygromycin-B (40 μg/mL) and puromycin (1 μg/mL) at 37° C. with 5% CO2 in a humidified atmosphere.
Human mGlu7 HEK-293 cells were plated out 24 hours prior to a fluorescent cell-based calcium mobilization assay using FLIPR^384 assay (Molecular Device, Sunnyvale, CA, USA) in black-walled, clear-bottomed, poly-L-ornithine-coated 384-well plates at a density of 25,000 cells/well in a glutamine/glutamate free DMEM medium containing fetal bovine serum (10%), penicillin (100 units/mL), streptomycin (100 μg/mL) and doxycyline (1 μg/ml) at 37° C. with 5% CO2 in a humidified atmosphere.
On the day of the assay, the medium was aspirated and the cells were loaded with a 3 μM solution of Fluo4-AM (LuBioScience, Lucerne, Switzerland) in 0.03% pluronic acid. After 1 hour at 37° C./5% CO2, the non incorporated dye was removed by washing cell plate with the assay buffer. All assays were performed in a pH 7.4 buffered-solution containing 20 mM HEPES, 143 mM NaCl, 6 mM KCl, 1 mM MgSO4, 1 mM CaCl2, 0.125 mM sulfinpyrazone and 0.1% glucose.
After 10 s of basal fluorescence recording, various concentrations of the compounds of the invention were added to the cells. Changes in fluorescence levels were first monitored for 180 s in order to detect any agonist activity of the compounds. Then the cells were stimulated by an EC80 L-AP4 concentration for an additional 110 s in order to measure inhibiting activities of the compounds of the invention. EC80 L-AP4 concentration is the concentration giving 80% of the maximal glutamate response.
The concentration-response curves of L-AP4 or representative compounds of the present invention were generated using the Prism GraphPad software (Graph Pad Inc, San Diego, USA). The curves were fitted to a four-parameter logistic equation:
(Y=Bottom+(Top−Bottom)/(1+10^((Log IC50−X)*Hill Slope)
allowing determination of IC50 values.
The Table 3 below represents the mean IC50 obtained from at least three independent experiments of selected molecules performed in duplicate.

T1 sequence (Q14831 35-922 isoform Q14831-2 limits assumed): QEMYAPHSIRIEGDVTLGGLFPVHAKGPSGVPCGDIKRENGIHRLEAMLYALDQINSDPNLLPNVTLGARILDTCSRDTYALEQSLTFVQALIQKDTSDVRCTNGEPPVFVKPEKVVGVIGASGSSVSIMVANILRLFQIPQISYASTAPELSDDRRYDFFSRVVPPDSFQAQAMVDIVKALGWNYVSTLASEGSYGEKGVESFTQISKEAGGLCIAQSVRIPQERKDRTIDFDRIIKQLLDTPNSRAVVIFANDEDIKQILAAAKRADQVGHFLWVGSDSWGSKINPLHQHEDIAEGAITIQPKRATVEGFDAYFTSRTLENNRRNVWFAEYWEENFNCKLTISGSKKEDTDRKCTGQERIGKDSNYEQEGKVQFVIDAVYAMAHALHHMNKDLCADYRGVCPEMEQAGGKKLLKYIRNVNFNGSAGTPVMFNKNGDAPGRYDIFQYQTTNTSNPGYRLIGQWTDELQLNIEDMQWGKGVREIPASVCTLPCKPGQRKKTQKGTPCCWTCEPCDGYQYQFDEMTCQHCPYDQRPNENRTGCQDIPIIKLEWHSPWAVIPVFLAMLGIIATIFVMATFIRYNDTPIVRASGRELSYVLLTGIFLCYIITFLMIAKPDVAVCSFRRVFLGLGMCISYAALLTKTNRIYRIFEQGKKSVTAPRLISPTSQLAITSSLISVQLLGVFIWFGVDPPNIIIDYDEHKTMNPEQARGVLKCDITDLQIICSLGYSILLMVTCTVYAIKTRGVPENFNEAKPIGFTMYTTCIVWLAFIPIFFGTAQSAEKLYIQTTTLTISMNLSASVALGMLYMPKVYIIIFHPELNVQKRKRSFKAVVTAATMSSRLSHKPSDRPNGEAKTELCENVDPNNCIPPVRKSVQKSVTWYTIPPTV

Row | IC50 | Compound
1 | < 0.1 µM | Cc1ccc(C2CCc3nn(-c4ccccn4)c(=O)n3C2)c(C)c1 (single isomer, unassigned; (+)) [Compound 1-18, (+)6-(2,4-dimethylphenyl)-2-(pyridin-2-yl)-5,6,7,8-tetrahydro-[1,2,4]triazolo[4,3-a]pyridin-3(2H)-one]
2 | 1 to 10 µM | Cc1ccc(C2CCc3nn(-c4ccccn4)c(=O)n3C2)c(C)c1 (single isomer, unassigned; (-)) [Compound 1-17, (−)6-(2,4-dimethylphenyl)-2-(pyridin-2-yl)-5,6,7,8-tetrahydro-[1,2,4]triazolo[4,3-a]pyridin-3(2H)-one]
3 | < 0.1 µM | Cc1ccc(-c2ccc3nn(-c4ccccn4)c(=O)n3c2)c(C)c1 [Compound 1-1, 6-(2,4-dimethylphenyl)-2-(pyridin-2-yl)-[1,2,4]triazolo[4,3-a]pyridin-3(2H)-one]
4 | 0.1 to 1 µM | Cc1ccc(-c2ccc3nn(-c4ncccn4)c(=O)n3c2)c(C)c1 [Compound 1-2, 6-(2,4-dimethylphenyl)-2-(pyrimidin-2-yl)-[1,2,4]triazolo[4,3-a]pyridin-3(2H)-one]
5 | < 0.1 µM | Cc1ccc(C2CCc3nn(-c4ccccn4)c(=O)n3C2)c(C)c1 (stereo not shown) [Compound 1-3, 6-(2,4-dimethylphenyl)-2-(pyridin-2-yl)-5,6,7,8-tetrahydro-[1,2,4]triazolo[4,3-a]pyridin-3(2H)-one]
6 | 0.1 to 1 µM | O=c1n(-c2ccccn2)nc2ccc(-c3cccc(N4CCC4)c3)cn12 [Compound 1-4, 6-(3-(azetidin-1-yl)phenyl)-2-(pyridin-2-yl)-[1,2,4]triazolo[4,3-a]pyridin-3(2H)-one]
7 | 0.1 to 1 µM | COc1cccc(-c2ccc3nn(-c4ccccn4)c(=O)n3c2)c1 [Compound 1-5, 6-(3-methoxyphenyl)-2-(pyridin-2-yl)-[1,2,4]triazolo[4,3-a]pyridin-3(2H)-one]
8 | 0.1 to 1 µM | O=c1n(-c2ncccn2)nc2ccc(-c3cccc(N4CCC4)c3)cn12 [Compound 1-6, 6-(3-(azetidin-1-yl)phenyl)-2-(pyrimidin-2-yl)-[1,2,4]triazolo[4,3-a]pyridin-3(2H)-one]
9 | 1 to 10 µM | COc1cccc(-c2ccc3nn(-c4ncccn4)c(=O)n3c2)c1 [Compound 1-7, 6-(3-methoxyphenyl)-2-(pyrimidin-2-yl)-[1,2,4]triazolo[4,3-a]pyridin-3(2H)-one]
10 | 1 to 10 µM | COc1cccc(C2CCc3nn(-c4ccccn4)c(=O)n3C2)c1 (stereo not shown) [Compound 1-8, 6-(3-methoxyphenyl)-2-(pyridin-2-yl)-5,6,7,8-tetrahydro-[1,2,4]triazolo[4,3-a]pyridin-3(2H)-one]
11 | < 0.1 µM | COc1cccc(-c2ccc3nn(-c4ccccn4)c(=O)n3c2)c1C [Compound 1-9, 6-(3-methoxy-2-methylphenyl)-2-(pyridin-2-yl)-[1,2,4]triazolo[4,3-a]pyridin-3(2H)-one]
12 | 0.1 to 1 µM | COc1cccc(C2CCc3nn(-c4ccccn4)c(=O)n3C2)c1C (stereo not shown) [Compound 1-10, 6-(3-methoxy-2-methylphenyl)-2-(pyridin-2-yl)-5,6,7,8-tetrahydro-[1,2,4]triazolo[4,3-a]pyridin-3(2H)-one]
13 | 0.1 to 1 µM | COc1cccc(-c2ccc3nn(-c4ncccn4)c(=O)n3c2)c1C [Compound 1-11, 6-(3-methoxy-2-methylphenyl)-2-(pyrimidin-2-yl)-[1,2,4]triazolo[4,3-a]pyridin-3(2H)-one]
14 | 0.1 to 1 µM | O=c1n(-c2ncccn2)nc2ccc(-c3cccc(OC4CC4)c3)cn12 [Compound 1-12, 6-(3-cyclopropoxyphenyl)-2-(pyrimidin-2-yl)-[1,2,4]triazolo[4,3-a]pyridin-3(2H)-one]
15 | 0.1 to 1 µM | O=c1n(-c2ccccn2)nc2ccc(-c3cccc(OC4CC4)c3)cn12 [Compound 1-13, 6-(3-cyclopropoxyphenyl)-2-(pyridin-2-yl)-[1,2,4]triazolo[4,3-a]pyridin-3(2H)-one]
16 | 0.1 to 1 µM | O=c1n(-c2ccccn2)nc2n1CC(c1cccc(OC3CC3)c1)CC2 (stereo not shown) [Compound 1-14, 6-(3-cyclopropoxyphenyl)-2-(pyridin-2-yl)-5,6,7,8-tetrahydro-[1,2,4]triazolo[4,3-a]pyridin-3(2H)-one]
17 | 1 to 10 µM | COc1ccc(-c2ccc3nn(-c4ccccn4)c(=O)n3c2)cc1 [Compound 1-15, 6-(4-methoxyphenyl)-2-(pyridin-2-yl)-[1,2,4]triazolo[4,3-a]pyridin-3(2H)-one]
18 | 1 to 10 µM | COc1ccc(C2CCc3nn(-c4ccccn4)c(=O)n3C2)cc1 (stereo not shown) [Compound 1-16, 6-(4-methoxyphenyl)-2-(pyridin-2-yl)-5,6,7,8-tetrahydro-[1,2,4]triazolo[4,3-a]pyridin-3(2H)-one]
19 | 1 to 10 µM | COc1ccccc1-c1ccc2nn(-c3ccccn3)c(=O)n2c1 [Compound 1-19, 6-(2-methoxyphenyl)-2-(pyridin-2-yl)-[1,2,4]triazolo[4,3-a]pyridin-3(2H)-one]
20 | 0.1 to 1 µM | COc1ccc(-c2ccc3nn(-c4ccccn4)c(=O)n3c2)c(C)c1 [Compound 1-20, 6-(4-methoxy-2-methylphenyl)-2-(pyridin-2-yl)-[1,2,4]triazolo[4,3-a]pyridin-3(2H)-one]
21 | 1 to 10 µM | COc1ccc(-c2ccc3nn(-c4ncccn4)c(=O)n3c2)c(C)c1 [Compound 1-21, 6-(4-methoxy-2-methylphenyl)-2-(pyrimidin-2-yl)-[1,2,4]triazolo[4,3-a]pyridin-3(2H)-one]
22 | 0.1 to 1 µM | COc1ccc(C2CCc3nn(-c4ccccn4)c(=O)n3C2)c(C)c1 (stereo not shown) [Compound 1-22, 6-(4-methoxy-2-methylphenyl)-2-(pyridin-2-yl)-5,6,7,8-tetrahydro-[1,2,4]triazolo[4,3-a]pyridin-3(2H)-one]
